Reference: ChEMBL document CHEMBL5523769, “Discovery of Novel Nonpeptidic and Noncovalent Small Molecule 3CLpro Inhibitors as anti-SARS-CoV-2 Drug Candidate” (J Med Chem, 2024)

Key:
[1] = biological target: T1, Replicase polyprotein 1ab (Severe acute respiratory syndrome coronavirus 2, UniProt P0DTD1)
[2] = Cytotoxicity against African green monkey Vero E6 cells incubated for 24 hrs by CCK8 assay; type: toxicity, cell-based, Vero C1008; conditions: chlorocebus sabaeus
[3] = biological target: Replicase polyprotein 1ab (Severe acute respiratory syndrome coronavirus 2) (UniProt P0DTD1); conditions: dose 31.25-1000 nM, time 100.0 sec
[4] = biological target: Replicase polyprotein 1ab (Severe acute respiratory syndrome coronavirus 2) (UniProt P0DTD1); conditions: dose 31.25-1000 nM, time 100.0 sec; remark: listed apart in the source
[5] = Tmax in ICR mouse at 20 mg/kg, po; type: ADME, organism-based; conditions: in vivo
[6] = Half-life in ICR mouse at 20 mg/kg, po; type: ADME, organism-based; conditions: in vivo
[7] = Cmax in ICR mouse at 20 mg/kg, po; type: ADME, organism-based; conditions: in vivo
[8] = AUC (0 to infinity) in ICR mouse at 20 mg/kg, po; type: ADME, organism-based; conditions: in vivo
[9] = AUClast in ICR mouse at 20 mg/kg, po; type: ADME, organism-based; conditions: in vivo
[10] = Observed MRT (0 to infinity) in ICR mouse at 20 mg/kg, po; type: ADME, organism-based; conditions: in vivo
[11] = biological target: T1, Replicase polyprotein 1ab; remark: listed apart in the source

Compound: O=C(NCCC1CCOCC1)C1CN(c2ccc(Cl)c(Cl)c2)CCN1C(=O)c1cc(=O)[nH]c2ccccc12 (stereo unspecified)
- IC50 [1]: 1.14 µM

Compound: O=C(NCCCN1CCOCC1)C1CN(c2ccc(Cl)c(Cl)c2)CCN1C(=O)c1cc(=O)[nH]c2ccccc12 (stereo unspecified)
- IC50 [1]: 1.34 µM

Compound: CN1CCN(C(=O)c2cc(Br)cc([N+](=O)[O-])c2N[C@@H]2CCC[C@@H]2NC(=O)c2cc(=O)[nH]c3c(F)cccc23)CC1
- IC50 [1]: 0.0286 µM

Compound: CN1CCN(C(=O)c2cc(C3CC3)cc([N+](=O)[O-])c2N[C@@H]2CCC[C@@H]2NC(=O)c2cc(=O)[nH]c3c(F)cccc23)CC1
- IC50 [1]: 0.0285 µM

Compound: COc1ccc2[nH]c(=O)cc(C(=O)N[C@H]3CCCC[C@H]3Nc3c(C(=O)N4CCOCC4)cc(Br)cc3[N+](=O)[O-])c2c1
- IC50 [1]: 0.0292 µM

Compound: O=C(N[C@H]1CCCC[C@H]1Nc1c(C(=O)N2CCOCC2)cc(Br)cc1[N+](=O)[O-])c1cc(=O)[nH]c2c(F)cccc12
- CC50 at 24 h [2]: > 200 µM
- K [3]: 5.4 10^5/M/s
- K [4]: 0.01 s⁻¹
- Tmax [5]: 15 min
- half-life [6]: 48 min
- Cmax [7]: 0.0339 µg/mL
- AUC(0-inf) [8]: 0.0216 µg·h/mL
- AUC(0-t) [9]: 0.0212 µg·h/mL
- MRT inf [10]: 39 min
- IC50 [1]: 0.0269 µM
- Kd [11]: 0.019 µM

Compound: O=C(NCC1CCCCC1)C1CN(c2ccc(Cl)c(Cl)c2)CCN1C(=O)c1cc(=O)[nH]c2ccccc12 (stereo unspecified)
- IC50 [1]: 0.44 µM

Compound: O=C(NCCC1CC1)C1CN(c2ccc(Cl)c(Cl)c2)CCN1C(=O)c1cc(=O)[nH]c2ccccc12 (stereo unspecified)
- IC50 [1]: 0.52 µM

Compound: CNC(=O)c1cc(Br)cc([N+](=O)[O-])c1N[C@@H]1CCCC[C@@H]1NC(=O)c1cc(=O)[nH]c2ccccc12
- CC50 at 24 h [2]: > 200 µM
- K [3]: 2.1 10^5/M/s
- K [4]: 0.019 s⁻¹
- Tmax [5]: 15 min
- half-life [6]: 231 min
- Cmax [7]: 0.0113 µg/mL
- AUC(0-inf) [8]: 0.0299 µg·h/mL
- AUC(0-t) [9]: 0.0236 µg·h/mL
- MRT inf [10]: 305 min
- IC50 [1]: 0.0408 µM
- Kd [11]: 0.0089 µM

Compound: O=C(N[C@H]1CCCC[C@H]1Nc1c(C(=O)N2CCOCC2)cc(Br)cc1[N+](=O)[O-])c1cc(=O)[nH]c2ccccc12
- CC50 at 24 h [2]: > 200 µM
- IC50 [1]: 0.0327 µM

Compound: O=C(c1cc(=O)[nH]c2ccccc12)N1CCN(c2ccc(Cl)c(Cl)c2)C[C@@H]1CC1CCCCC1
- IC50 [1]: > 20 µM

Compound: O=C(NCCC(F)(F)F)[C@@H]1CN(c2ccc(Cl)c(Cl)c2)CCN1C(=O)c1cc(=O)[nH]c2ccccc12
- IC50 [1]: 0.15 µM

Compound: O=C(N[C@H]1CCCC[C@H]1Nc1c(C(=O)N2CCOCC2)cc(Br)cc1[N+](=O)[O-])c1cc(=O)[nH]c2cc(F)ccc12
- IC50 [1]: 0.0387 µM

Compound: CNC(=O)c1cc(C2CC2)cc([N+](=O)[O-])c1N[C@@H]1CCCC[C@@H]1NC(=O)c1cc(=O)[nH]c2ccccc12
- CC50 at 24 h [2]: > 200 µM
- IC50 [1]: 0.0207 µM
